Series [1] has as its target T1, VAChT (Rattus norvegicus, UniProt Q62666).
T1 construct: The entire brain was sampled and dissected in different regions: cortex, striatum, hippocampus, thalamus and cerebellum; from tissue; host or cells: brain regions of male Wistar rats (in vivo tracer injection, ex vivo counting)
T1 sequence (Q62666 1-530): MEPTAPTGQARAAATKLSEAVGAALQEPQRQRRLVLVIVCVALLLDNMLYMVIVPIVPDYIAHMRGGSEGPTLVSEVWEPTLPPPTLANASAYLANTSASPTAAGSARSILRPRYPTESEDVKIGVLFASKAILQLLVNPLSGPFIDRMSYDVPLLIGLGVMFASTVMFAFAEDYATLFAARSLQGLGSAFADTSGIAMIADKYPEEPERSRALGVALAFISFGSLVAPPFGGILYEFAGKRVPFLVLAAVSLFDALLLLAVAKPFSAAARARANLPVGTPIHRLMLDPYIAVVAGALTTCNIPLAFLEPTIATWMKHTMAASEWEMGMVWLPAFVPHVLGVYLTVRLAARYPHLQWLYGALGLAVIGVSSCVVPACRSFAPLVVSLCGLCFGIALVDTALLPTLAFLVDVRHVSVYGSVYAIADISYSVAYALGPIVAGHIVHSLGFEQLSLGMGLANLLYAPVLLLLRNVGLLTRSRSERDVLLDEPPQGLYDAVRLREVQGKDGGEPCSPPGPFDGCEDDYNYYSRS
The series is described as follows: Radioligand ([3H]vesamicol) binding on rat brain membrane preparation, affinity for VAChT. The conditions noted are these: rat brain membranes, mean ± standard deviation of 3 independent experiments, Cheng & Prussoff. The method, then:
Measurement of the affinity of the different compounds for VAChT was obtained by radioligand binding method on rat brain membrane preparation, following the method described in Scheunemann et al. (Bioorg Med Chem 2004;12:1459-65). The L-(−)-vesamicol was supplied by Sigma Aldrich (Saint-Quentin-Fallavier, France) and [^3H]vesamicol (specific activity 1705.7 GBq/mmol) by Perkin-Elmer (Courtaboeuf, France). The IC50 values were determined graphically for each compound and Ki (inhibition constant) was calculated following the method of Cheng & Prussoff (Biochemical pharmacology 1973;22:3099-108). The results are expressed as a mean of Ki values±standard deviation from the mean after 3 independent experiments.

The target in series [2] is T1, VAChT. The series is described as follows: Biodistribution: cerebral accumulation of the tracers in the rat. The class given is in vivo. As to conditions: for Striatum/cerebellum accumulation ratio / Cerebral accumulation, cerebellum / Cerebral accumulation, striatum: 2 hours after i.v. injection of the tracer; for Cerebral accumulation, cerebellum / Cerebral accumulation, striatum: ± SEM, n=6/group. On the procedure:
Animals: The experiments were conducted in male rates of Wistar strain weighing 250-300 g (Breeding Centre R. Janvier, Le Genest St Isle, France). All procedures were carried out paying heed to European regulations on animal experimentation (2010/63/EU) with authorisation from the regional ethics committee on animal experiments: Comité Régional d'Ethique en Expérimentation Animale.
Biodistribution studies: The rats in the control group were given an i.v. injection of tracer (4-6 MBq in 0.3 mL) under isoflurane gas anaesthesia (n=6/group). In the VES group (n=6/group), injection of the tracer was preceded (5 min) by an i.v. injection of vesamicol (0.5 μmol/kg). The rats were sacrificed by decapitation 2 h after injection of the tracer. The entire brain was sampled and dissected in different regions: cortex, striatum, hippocampus, thalamus and cerebellum. Blood and bone fractions were also sampled. The biological samples were weighed, the radioactivity thereof was measured with a γ counter (2480 Gamma counter Wizard, Perkin Elmer), and the percentage of injected dose/g of tissue (% ID/g) was calculated.

`OC1Cc2cccc(F)c2CC1N1CCC(c2ccccc2)CC1` (racemic) [rac (+/−)-5-FBVM Trans, 5-Fluoro-3-(4-phenylpiperidin-1-yl)-1,2,3,4-tetrahydronaphthalen-2-ol] displayed an inhibition constant (Ki) at VAChT [1] of 1.3 nM. Also, on VAChT [2] (in vivo PET tracer in the rat), the In vivo stability entry is on record as “good” and the “Passing through the blood-brain barrier” value was “excellent”.

Take `O[C@@H]1Cc2cccc(F)c2C[C@H]1N1CCC(c2ccccc2)CC1` [(−)-(R,R)-5-FBVM E1, (2R,3R)-5-Fluoro-3-(4-phenylpiperidin-1-yl)-1,2,3,4-tetrahydronaphthalen-2-ol]: at VAChT [1], the Ki was determined as 0.9 nM.

As for `O[C@@H]1Cc2cccc([18F])c2C[C@H]1N1CCC(c2ccccc2)CC1` [(−)-(R,R)-5-FBVM ^18F E1], at VAChT [2] (rat), the Striatum/cerebellum accumulation ratio came to 5.84; the “Cerebral accumulation, cerebellum” value is recorded as 0.232 ± 0.017 % ID/g; the “Cerebral accumulation, striatum” value amounted to 1.356 ± 0.069 % ID/g. Besides, the “Reduction of accumulation in the striatum after (−)vesamicol pre-administration” value at VAChT [2] (rat, (−)vesamicol 0.5 μmole/kg, 5 minutes before injection of the tracer) came out at 46%.

Compound `OC1Cc2cccc(OCCF)c2CC1N1CCC(c2ccccc2)CC1` (single isomer, unassigned; (-)) [(−)-FEOBV, 5-fluoroethoxybenzovesamicol, reference compound] gave a Ki on VAChT [1] of 61 ± 2.8 nM.

Consider `O[C@H]1Cc2cccc([18F])c2C[C@@H]1N1CCC(c2ccccc2)CC1` [(+)-(S,S)-5-[^18F]FBVM ^18F E2], for which, on VAChT [2] (rat), the Striatum/cerebellum accumulation ratio was 1.52; the “Cerebral accumulation, cerebellum” value amounted to 0.215 ± 0.011 % ID/g; the “Cerebral accumulation, striatum” value is on record as 0.327 ± 0.015 % ID/g.

At VAChT [1], `O[C@H]1Cc2cccc(F)c2C[C@@H]1N1CCC(c2ccccc2)CC1` [(+)-(S,S)-5-FBVM. E2, (2S,3S)-5-Fluoro-3-(4-phenylpiperidin-1-yl)-1,2,3,4-tetrahydronaphthalen-2-ol] showed a Ki of 35 nM.

In the case of `OC1Cc2cccc(OCCF)c2CC1N1CCC(c2ccccc2)CC1` (stereo not shown) [[^18F]FEOBV, 5-fluoroethoxybenzovesamicol, reference compound], at VAChT [2] (rat), the Striatum/cerebellum accumulation ratio is 3.59; the “Cerebral accumulation, cerebellum” value was found to be 0.844 ± 0.025 % ID/g; the “Cerebral accumulation, striatum” value is recorded as 0.235 ± 0.011 % ID/g.

Usually Ki stands for a measure of affinity in units of concentration, obtained from inhibition or displacement. Read a low Ki as higher affinity.

The values are drawn from patent US20240058481A1, “RADIOLABELLED COMPOUNDS FOR DIAGNOSING CHOLINERGIC NEURODEGENERATIVE DISEASES” (CENTRE NATIONAL DE LA RECHERCHE SCIENTIFIQUE, priority 2020, published 2024).
